# Data reported in US20110294992A1, “METAL RESPONSIVE MRI-AGENTS” (The Regents of the University of California, priority 2010, published 2011).
# “And” between values parts separate entries of the source, which are not always exact repeats. Equal values may be shown once.
# Legend:
# [1] = Electrochemical Cu2+/Cu+ reduction potentials of copper-bound CG complexes; assay type: physicochemical; details: PBS buffer, pH 7.4
# Experimental: CG6 is a unique member of the CG family that is equally responsive to both Cu^+ and Cu^2+. Addition of either Cu^+ or Cu^2+ to CG6 triggers a maximum 73% relaxivity turn-on from r1=2.2 mM^−1s^−1 to r1=3.8 mM^−1s^−1. […] On the other hand, copper-bound CG6, which responds to both Cu^+ and Cu^2+, has the least positive Cu^2+/Cu^+ reduction potential at +0.13 V.
# [2] = T1-weighted phantom magnetic resonance imaging at 1.5 T; details: 100 μM sensor with Cu^+ at 0, 10, 25, 50, 75, and 100 μM
# Experimental: FIG. 10. A) T1-weighted phantom images of 100 μM CG2-6 in 20 mM HEPES pH 7 with and without 1 equiv Cu^n+. B) Phantom images of 100 μM CG2-6 with 0, 10, 25, 50, 75, and 100 μM [Cu(NCCH3)4]PF6. Images were acquired at 25° C. at 1.5 T (˜64 MHz proton Larmor frequency).
# With spectroscopic data showing the turn-on relaxivity responses, binding properties, metal ion selectivities, and copper-induced changes in q values for this new series of CG contrast agents in hand, we next sought to test the ability of these sensors to detect changes in aqueous Cu^+ and/or Cu^2+ levels using MRI. […] In this context, chelatable copper pools have been identified in the mitochondrial matrix^22 and in the Golgi apparatus.^23 Moreover, the cerebrospinal fluid (CSF) contains micromolar levels of copper ions, most of which is not bound to ceruloplasmin due to the low concentrations of this protein in the CSF,^24,25 which may result in facile exchange between different copper binding ligands.^26
# [3] = Metal ion selectivity of relaxivity response (competing metal ions alone or with added copper); assay type: physicochemical; details: relaxivity at 60 MHz, 20 mM HEPES, pH 7, 37° C.
# Experimental: FIG. 6. Relaxivity responses of CG2 to various metal ions. White bars represent the addition of an excess of the appropriate metal ion (10 mM for Na^+, 2 mM for K^+, Mg^2+, and Ca^2+, and 0.2 mM for Fe^2+, Fe^3+, Cu^2+) to a 0.2 mM solution of CG2. Response to Zn^2+ was measured both at 0.2 mM Zn^2+ (Zn^2+1×) and 2 mM Zn^2+ (Zn^2+10×). Black bars represent the subsequent addition of 0.2 mM Cu^+ to the CG2 solution. Relaxivity measurements were acquired at 37° C. in 20 mM HEPES buffer, pH 7, at a proton Larmor frequency of 60 MHz.
# The potential ability of this new family of CG sensors to sense bioavailable copper pools in either or both its predominant oxidation states represents a significant advance over the initial CG1 compound.
# [4] = Relaxivity response to 1 equiv Cu+ in the presence of biologically relevant anions; assay type: physicochemical; details: for increase in r1 in response to Cu^+ / turn-on response to Cu^+: pH 7
# Experimental: FIG. 7. Relaxivity responses of CG2 to 1 equiv Cu^+ in the presence of biologically relevant anions. White bars represent CG2 relaxivities without Cu^+ in the presence of various anions. Black bars represent CG2 relaxivities with Cu^+ in the presence of different anions. Percentages in the black bars are the % increases r1. Relaxivity measurements with HEPES, citrate (0.13 mM), lactate (2.3 mM), and HCO3^− (10 mM, 25 mM), were acquired at 37° C. in 20 mM HEPES buffer, pH 7, at a proton Larmor frequency of 60 MHz. Relaxivity measurements with PBS were acquired under similar conditions using phosphate buffered saline, pH 7.4.
# We also tested the copper responses of CG2-6 in the presence of physiologically relevant concentrations of common biological anions (FIG. 7). […] Carboxylate-type anions, however, can affect relaxivity responses of Cu^+-bound CG2. Addition of citrate (0.13 mM) and lactate (2.3 mM) to CG2 results in turn-on responses to Cu^+ of 220% and 71% respectively. Carbonate concentrations also affect the response of CG2; the effect of carbonate was tested at 10 mM NaHCO3 (intracellular)^104 and 25 mM NaHCO3 (extracellular)^108 and gave increases in r1 in response to Cu^+ of 190% and 140% respectively. Although the relaxivity increases observed in the presence of anions are still well within a range detectable by MRI,^109 current work is geared toward developing CG-sensors with more carboxylate functionalities incorporated into the ligand framework to minimize anion sensitivity.^55,110
# [5] = Kinetic stability to metal ion exchange monitored by LC/MS; assay type: physicochemical; details: 1 equiv of Cu^2+
# [6] = Longitudinal relaxivity (r1) turn-on response to Cu+ from T1 measurements at 60 MHz; assay type: physicochemical; details: 1 equiv Cu^+, 20 mM HEPES buffer, pH 7, 37° C.
# Experimental: (§1) The longitudinal relaxivity values for the CG contrast agents in the absence or presence of copper ions were determined using T1 measurements at 60 MHz. Studies were performed at 37° C. in 20 mM HEPES buffered to pH 7, and solutions of the purified CG sensors for relaxivity experiments contained 0.2 mM Gd^3+ as determined by ICP-OES. Spectroscopic data are collected in Table 1.
# Upon addition of up to 1 equiv of copper ions, the relaxivity values of the CG contrast agents increase, establishing the ability of these probes to sense copper using the MR modality (Table 1, FIG. 3). CG2, CG3, CG4, and CG5 respond to Cu^+ with relaxivity increases ranging from 92% to 360%. […] These values represent the largest relaxivity enhancements observed to date for metal-activated MR contrast agents and a ca. 9-fold improvement in copper ion response compared to CG1 (41% increase). The observed differences in turn-on Cu^+ responses for benzyl-substituted CG4 (290% increase) versus methyl-substituted CG5 (92% increase) with the same pyridyl-thioether receptor show the marked effects that small peripheral substitutions can have on relaxivity properties.
# [7] = Longitudinal relaxivity (r1) from T1 measurements at 60 MHz, absence of copper; assay type: physicochemical; details: no copper; 60 MHz, 20 mM HEPES buffer, pH 7, 37° C., 0.2 mM Gd^3+
# Experimental: as §1
# Nuclear magnetic relaxation dispersion (NMRD) experiments provide supporting evidence for this proposal (vide infra).
structure (smiles),measurement,setting,value
CCSCCN(CCSCC)Cc1cccc(CN2CCN(CC(=O)[O-])CCN(CC(=O)[O-])CCN(CC(=O)[O-])CC2)n1.[Gd+3] [CG2],Cu^2+/+ E1/2,[1],0.46 V vs. SHE
same,visualization of copper level differences in phantom images,[2],can readily visualize differences in copper levels in a biologically relevant μM range
same,redox specificity of relaxivity response (Cu^+ vs Cu^2+),[3],give turn-on relaxivity increases with Cu^+ but do not respond to Cu^2+
same,increase in r1 in response to Cu^+,[4]; 10 mM NaHCO3 (intracellular) in 20 mM HEPES,190%
same,increase in r1 in response to Cu^+,[4]; 25 mM NaHCO3 (extracellular) in 20 mM HEPES,140%
same,turn-on response to Cu^+,"[4]; citrate (0.13 mM) in 20 mM HEPES, 1 equiv Cu^+",220%
same,turn-on response to Cu^+,"[4]; lactate (2.3 mM) in 20 mM HEPES, 1 equiv Cu^+",71%
same,increase in relaxivity in response to Cu^+,"[4]; phosphate buffered saline (PBS, 10 mM phosphate), pH 7.4, 1 equiv Cu^+",350%
same,metal ion exchange (kinetic stability),"[5]; 37° C., after 4 hours",No metal ion exchange was observed
same,metal ion exchange (kinetic stability),"[5]; room temperature, after 7 days",No metal ion exchange was observed
same,r1 (1 equiv Cu),[6],6.9 mM^−1s^−1 and 6.9^b mM^−1s^−1
same,r1 (no Cu),[7],1.5 mM⁻¹ s⁻¹
